This is an account of results in the Kinase Knowledgebase extract (Sharma et al. 2016).

pIC50: −log10 of the molar value.

For this test, the target named is MAPK14 (human) (UniProt Q16539). Put plainly: Inhibition of MAPK14 Kinase Activity.
Sequence of MAPK14 (human) (Q16539 whole entry, looked up): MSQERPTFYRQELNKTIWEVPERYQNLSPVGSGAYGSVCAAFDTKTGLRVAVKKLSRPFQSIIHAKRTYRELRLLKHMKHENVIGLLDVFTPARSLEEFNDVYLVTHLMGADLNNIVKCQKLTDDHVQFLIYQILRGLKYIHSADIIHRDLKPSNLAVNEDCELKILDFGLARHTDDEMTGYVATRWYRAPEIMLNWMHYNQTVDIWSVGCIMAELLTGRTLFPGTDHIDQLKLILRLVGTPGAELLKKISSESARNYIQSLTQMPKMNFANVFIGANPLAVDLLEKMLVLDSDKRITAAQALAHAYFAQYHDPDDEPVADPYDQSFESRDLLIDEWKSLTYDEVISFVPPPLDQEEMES
The molecule `CC[C@@H](C)Nc1ncc(-c2cn3ccnc3c(-c3ccccc3O)n2)s1` gave a pIC50 of 6.09.

Take `CCOC(=O)c1ccccc1-c1cc(-c2cnc(NC(C)C)s2)cn2ccnc12`: the pIC50 was 6.10.

The molecule `CC(C)Nc1ncc(-c2cc(-c3ccccc3F)c3nncn3c2)s1` gave a pIC50 of 7.89.

`COC(=O)Cc1cn2cc(-c3cn[nH]c3)cc(-c3ccccc3)c2n1`: the pIC50 was 6.03.

`CC[C@@H](C)Nc1ncc(-c2cn3ccnc3c(-c3ccccc3F)n2)s1`: the pIC50 was 7.64.

`CNC(=O)c1cn2cc(-c3cnc(NC(C)C)s3)cc(-c3ccccc3)c2n1` gave a pIC50 of 7.43.

Turning to `CC(C)Nc1ncc(-c2cc(-c3cccc(F)c3)c3nncn3c2)s1`, the pIC50 is 7.04.

The molecule `CC(C)Nc1cnc(-c2cc(-c3ccccc3)c3nc(CCO)cn3c2)s1` gave a pIC50 of 7.42.

Take `CC[C@@H](C)Nc1ncc(-c2cc(-c3ccc(F)cc3F)c3nccn3c2)s1`: the pIC50 was 8.24.

`Cc1ccc(C)c(-c2cc(-c3cnc(NC(C)C)s3)cn3ccnc23)c1` showed a pIC50 of 5.81.

`Cc1cscc1-c1cc(-c2cnc(NC(C)C)s2)cn2ccnc12`: the pIC50 was 8.28.

As for `CCOCC(C)Nc1ncc(-c2cn3ccnc3c(-c3ccccc3F)n2)s1` (configuration not stated), the pIC50 was 7.40.

Molecule `CC(C)Nc1ncc(-c2cc(-c3ccccc3C#N)c3nccn3c2)s1` had a negative logarithm of the IC50 (pIC50) of 6.17.

Consider `CCC(CC)Nc1ncc(-c2cc(-c3cccc(C#N)c3)c3nccn3c2)s1`, for which the pIC50 is 6.09.

On to `CC(C)Nc1ncc(-c2cc(-c3ccccc3)c3nncn3c2)s1`, for which the pIC50 was 6.24.

`CC(C)Nc1ncc(-c2cc(-c3cccc(C#N)c3)c3nccn3c2)s1` had a pIC50 of 6.03.

Take `CC[C@@H](C)Nc1ncc(-c2cc(-c3ccccc3F)c3nccn3c2)s1`: the pIC50 was 8.47.

Molecule `CC(C)C(C)Nc1ncc(-c2cc(-c3ccccc3Cl)c3nccn3c2)s1` (configuration not stated) had a pIC50 of 7.41.

Turning to `Fc1ccccc1-c1nc(-c2cnc(NC3CCOCC3)s2)cn2ccnc12`, the pIC50 was 6.96.

`CCCCNc1ncc(-c2cc(-c3ccccc3)c3nc(C(=O)OCC)cn3c2)s1`: the pIC50 was 7.40.

`CC(C)Nc1ncc(-c2cc(-c3ccccc3Cl)c3nncn3c2)s1` showed a pIC50 of 7.82.

`CC(C)Nc1ncc(-c2cc(-c3ccc(F)c(Cl)c3)c3nncn3c2)s1` gave a pIC50 of 6.22.

On to `Cc1ccccc1-c1cc(-c2cnc(NCCN(C)C)s2)cn2ccnc12`, for which the pIC50 was 5.75.

Regarding `Fc1ccc(-c2cc(-c3cnc(NC4CCOCC4)s3)cn3ccnc23)cc1`, the pIC50 is 7.45.

`CC[C@@H](C)Nc1ncc(-c2cc(-c3cscc3C)c3nccn3c2)s1` had a negative-log IC50 (pIC50) of 8.52.

The molecule `Cc1c(-c2cc(-c3ccccc3)c3nccn3c2)cnn1-c1ccccc1` showed a pIC50 of 6.20.

The molecule `CC(C)C(C)Nc1ncc(-c2cc(-c3ccccc3)c3nccn3c2)s1` (configuration not stated) showed a pIC50 of 7.38.

Regarding `CC(C)Nc1ncc(-c2cn3ccnc3c(-c3ccccc3)n2)s1`, the pIC50 was 7.22.

On to `CC[C@@H](C)Nc1ncc(-c2cc(-c3ccccc3Cl)c3nccn3c2)s1`, for which the pIC50 is 8.23.

The molecule `CC[C@@H](C)Nc1ncc(-c2cc(-c3ccccc3)c3nc(CC(=O)OC)cn3c2)s1` gave a pIC50 of 7.48.

In turn, `CC[C@@H](C)Nc1ncc(-c2cc(-c3ccccc3C)c3nccn3c2)s1` had a pIC50 of 8.30.

The molecule `CCOC(=O)c1cn2cc(-c3cnc(N[C@H](C)CC)s3)cc(-c3ccccc3F)c2n1` showed a pIC50 of 8.22.

For orientation: pIC50 means −log10 of the IC50, conventionally taken in molar units. Low values mean a high IC50, high ones a low IC50.
